The numbers were not newly measured in US9062086B2, “N-acetyl L-cysteine chelates and methods for making and using the same” (Viva Pharmaceutical, Inc., priority 2013, dated 2015), which cites them from elsewhere.

As usually defined, the Ki is the dissociation constant of the complex between target and ligand, obtained from inhibition or displacement.

SMILES strings stand for the structures.

Series [1] addresses c-Glutamylcysteine synthetase (Homo sapiens, UniProt P48506). The following applies: read-out: Ki (feedback inhibition by GSH); background statement.
The conditions of series [2]: much higher than NAC; background statement.

Sequence of c-Glutamylcysteine synthetase (P48506 whole entry): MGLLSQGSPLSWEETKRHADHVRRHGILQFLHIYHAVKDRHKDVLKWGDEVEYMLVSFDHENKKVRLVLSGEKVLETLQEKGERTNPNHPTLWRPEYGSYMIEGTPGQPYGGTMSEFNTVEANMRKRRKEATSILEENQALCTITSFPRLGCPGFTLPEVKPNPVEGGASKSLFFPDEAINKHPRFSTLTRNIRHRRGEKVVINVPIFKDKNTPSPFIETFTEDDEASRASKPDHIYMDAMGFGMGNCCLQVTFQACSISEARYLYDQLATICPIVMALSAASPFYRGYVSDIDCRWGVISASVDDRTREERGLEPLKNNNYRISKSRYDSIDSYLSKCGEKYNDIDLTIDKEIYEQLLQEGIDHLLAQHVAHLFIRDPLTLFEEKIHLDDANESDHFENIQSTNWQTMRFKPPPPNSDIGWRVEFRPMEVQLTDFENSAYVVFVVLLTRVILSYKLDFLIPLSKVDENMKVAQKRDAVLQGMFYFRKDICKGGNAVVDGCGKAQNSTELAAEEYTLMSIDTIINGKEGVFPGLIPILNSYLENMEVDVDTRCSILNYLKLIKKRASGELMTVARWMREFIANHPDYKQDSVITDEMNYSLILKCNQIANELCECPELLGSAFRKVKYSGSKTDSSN

As to `N[C@@H](CCC(=O)N[C@@H](CS)C(=O)NCC(=O)O)C(=O)O` [GSH, glutathione], in series [1], the Ki is about 1500 µM.

Take `CCOC(=O)[C@H](CS)NC(C)=O` [NACET, N-acetylcysteine ethyl ester]: in series [2], the bioavailability result is listed as “around 60%”.
